From ChEMBL document CHEMBL4507326, “Data for DCP probe TP-030-2” (2021)
The source made the active and inactive calls. No cut-off for these calls is given here.

How the values were obtained:
[1] = target: Alpha-2B adrenergic receptor (Homo sapiens, UniProt P18089); test: GPCRScan assay: inhibition of Alpha2B; set-up: radioligand conc. used [nm] 1.5 – 2.0, parental cells HEKT
[2] = target: Alpha-2C adrenergic receptor (Homo sapiens, UniProt P18825); test: GPCRScan assay: inhibition of Alpha2C; set-up: radioligand conc. used [nm] 0.5 – 1.0, parental cells stable MDCK
Chain of Alpha-2C adrenergic receptor (P18825 whole entry): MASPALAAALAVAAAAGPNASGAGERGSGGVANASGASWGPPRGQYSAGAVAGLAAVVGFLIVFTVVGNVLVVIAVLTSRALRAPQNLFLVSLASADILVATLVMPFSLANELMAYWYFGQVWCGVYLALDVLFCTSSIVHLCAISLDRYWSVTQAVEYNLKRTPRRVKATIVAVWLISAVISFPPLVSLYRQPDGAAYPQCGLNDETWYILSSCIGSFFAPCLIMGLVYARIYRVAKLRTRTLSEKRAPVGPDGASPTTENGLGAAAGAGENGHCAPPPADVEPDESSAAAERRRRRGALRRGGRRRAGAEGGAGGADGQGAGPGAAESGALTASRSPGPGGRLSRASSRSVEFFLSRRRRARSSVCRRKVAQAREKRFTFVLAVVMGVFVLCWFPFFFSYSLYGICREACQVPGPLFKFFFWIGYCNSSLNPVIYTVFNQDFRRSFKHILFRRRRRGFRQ

[3] = target: L-type calcium channel, benzothiazepine site (Cav1.2 alpha-1C) (Homo sapiens, UniProt Q13936); test: Inhibition of Calcium Channel L-Type, Benzothiazepine at 10 µM in the Eurofins-Panlabs radioligand binding assay (Eurofins_assay_214510); set-up: ligand concentration 2 nM, non-specific ligand with concentration 10 µM Diltiazem, incubation time 3h, incubation temperature 4 °C; conditions: male, Wistar, rat, rat whole brain preparation, probe [3H] Diltiazem; compound concentration 10 uM; target entry is the homologue from another species
[4] = target: Voltage-dependent N-type calcium channel subunit alpha-1B (Homo sapiens) (UniProt Q00975); test: Inhibition of Calcium Channel N-Type at 10 µM in the Eurofins-Panlabs radioligand binding assay (Eurofins_assay_216000); conditions: Rattus norvegicus; Compound concentration 10.0 uM
[5] = target: Prostaglandin E2 receptor EP4 subtype (Homo sapiens) (UniProt P35408); test: Inhibition of Prostanoid EP4 at 10 µM in the Eurofins-Panlabs radioligand binding assay (Eurofins_assay_268420); set-up: ligand concentration 1 nM; conditions: Compound concentration 10.0 uM
HT-29 = test: HT29 necroptosis assay; format: functional, cell-based; conditions: Homo sapiens
[6] = target: Cannabinoid receptor 1 (Homo sapiens) (UniProt P21554); test: Inhibition of Cannabinoid CB1 at compound concentration of 10.0 uM in the Eurofins-Panlabs radioligand binding assay (Eurofins_assay_217050); set-up: ligand concentration 2 nM; conditions: Compound concentration 10.0 uM
[7] = target: Tyrosine-protein kinase ABL1 (Homo sapiens, UniProt P00519); test: Abl(ABL1IHY1) Takeda global kinase panel
[8] = target: Bone morphogenetic protein receptor type-2 (Homo sapiens, UniProt Q13873); test: BMPR2(BMR2LGN1) Takeda global kinase panel
[9] = target: Serine/threonine-protein kinase B-raf (Homo sapiens, UniProt P15056); test: BRAF(BRAFLGY1) Takeda global kinase panel
[10] = target: Cyclin-dependent kinase 16 (Homo sapiens, UniProt Q00536); test: PCTAIRE1(CD16SGS1) Takeda global kinase panel
[11] = target: Cyclin-dependent kinase 6 (Homo sapiens, UniProt Q00534); test: CDK6(CDK6CGS1) Takeda global kinase panel
Chain of Cyclin-dependent kinase 6 (Q00534 whole entry): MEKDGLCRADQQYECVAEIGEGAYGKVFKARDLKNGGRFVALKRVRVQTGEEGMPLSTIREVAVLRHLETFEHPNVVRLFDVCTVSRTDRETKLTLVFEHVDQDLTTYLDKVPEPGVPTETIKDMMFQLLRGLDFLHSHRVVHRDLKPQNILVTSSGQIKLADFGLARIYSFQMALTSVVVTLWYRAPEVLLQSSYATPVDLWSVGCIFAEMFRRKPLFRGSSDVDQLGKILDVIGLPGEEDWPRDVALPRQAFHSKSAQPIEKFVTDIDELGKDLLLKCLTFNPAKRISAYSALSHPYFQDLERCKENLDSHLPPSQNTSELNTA

[12] = target: Inhibitor of nuclear factor kappa-B kinase subunit alpha (Homo sapiens, UniProt O15111); test: IKKalpha(CHUKLGP1) Takeda global kinase panel
Chain of Inhibitor of nuclear factor kappa-B kinase subunit alpha (O15111 whole entry): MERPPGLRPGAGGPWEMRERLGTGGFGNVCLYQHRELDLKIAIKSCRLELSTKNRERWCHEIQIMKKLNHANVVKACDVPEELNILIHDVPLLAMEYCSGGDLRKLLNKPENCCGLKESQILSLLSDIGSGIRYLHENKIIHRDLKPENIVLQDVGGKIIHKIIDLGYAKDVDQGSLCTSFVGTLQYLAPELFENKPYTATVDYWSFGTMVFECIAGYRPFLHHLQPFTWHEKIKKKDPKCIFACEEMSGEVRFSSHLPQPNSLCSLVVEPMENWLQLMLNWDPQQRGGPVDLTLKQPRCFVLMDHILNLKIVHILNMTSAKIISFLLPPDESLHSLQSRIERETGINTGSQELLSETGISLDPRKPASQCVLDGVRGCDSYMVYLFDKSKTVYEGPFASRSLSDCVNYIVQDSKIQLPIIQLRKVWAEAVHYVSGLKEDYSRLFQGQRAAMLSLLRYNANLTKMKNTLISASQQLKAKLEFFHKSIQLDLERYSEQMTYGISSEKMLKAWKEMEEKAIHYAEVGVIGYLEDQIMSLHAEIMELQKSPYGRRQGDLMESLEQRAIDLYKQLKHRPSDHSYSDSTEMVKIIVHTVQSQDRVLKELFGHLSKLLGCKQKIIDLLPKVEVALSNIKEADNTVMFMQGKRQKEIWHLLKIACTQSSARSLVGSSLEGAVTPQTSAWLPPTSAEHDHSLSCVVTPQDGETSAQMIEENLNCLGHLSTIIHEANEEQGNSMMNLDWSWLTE

[13] = target: Epidermal growth factor receptor (Homo sapiens, UniProt P00533); test: EGFR(EGFRMGB1) Takeda global kinase panel
[14] = target: Eukaryotic translation initiation factor 2-alpha kinase 1 (Homo sapiens, UniProt Q9BQI3); test: HRI(EIK1CGQ1) Takeda global kinase panel
Chain of Eukaryotic translation initiation factor 2-alpha kinase 1 (Q9BQI3 whole entry): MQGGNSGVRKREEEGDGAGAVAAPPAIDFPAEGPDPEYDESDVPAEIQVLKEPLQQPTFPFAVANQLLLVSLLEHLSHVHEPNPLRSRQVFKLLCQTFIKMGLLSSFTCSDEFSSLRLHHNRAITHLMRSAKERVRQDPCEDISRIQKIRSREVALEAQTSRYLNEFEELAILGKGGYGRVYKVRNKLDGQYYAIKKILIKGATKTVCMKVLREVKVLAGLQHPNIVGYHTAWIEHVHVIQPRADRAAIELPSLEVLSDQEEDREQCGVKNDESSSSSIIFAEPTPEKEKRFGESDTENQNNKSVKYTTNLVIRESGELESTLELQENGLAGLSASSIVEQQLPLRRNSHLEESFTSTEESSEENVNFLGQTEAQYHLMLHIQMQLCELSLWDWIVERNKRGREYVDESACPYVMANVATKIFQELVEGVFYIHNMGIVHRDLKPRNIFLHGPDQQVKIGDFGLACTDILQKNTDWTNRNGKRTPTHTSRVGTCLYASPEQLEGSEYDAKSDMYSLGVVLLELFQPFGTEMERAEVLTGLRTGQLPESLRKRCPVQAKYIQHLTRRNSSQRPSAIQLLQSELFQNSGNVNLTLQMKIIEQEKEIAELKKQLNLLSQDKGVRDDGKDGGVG

[15] = target: Interferon-induced, double-stranded RNA-activated protein kinase (Homo sapiens, UniProt P19525); test: PKR(EIK2LGY1) Takeda global kinase panel
Ephrin type-A receptor 3 = Ephrin type-A receptor 3 (Homo sapiens, UniProt P29320); test: EphA3(EPA3LGD5) Takeda global kinase panel
Ephrin type-A receptor 8 = Ephrin type-A receptor 8 (Homo sapiens, UniProt P29322); test: EphA8(EPA8LGF1) Takeda global kinase panel
[16] = target: Tyrosine-protein kinase FRK (Homo sapiens, UniProt P42685); test: FRK(FRK1LGF1) Takeda global kinase panel
[17] = target: G protein-coupled receptor kinase 6 (Homo sapiens, UniProt P43250); test: GRK6(GRK6LGP1) Takeda global kinase panel
[18] = target: Homeodomain-interacting protein kinase 1 (Homo sapiens, UniProt Q86Z02); test: HIPK1(HIP1LGF1) Takeda global kinase panel
[19] = target: Inhibitor of nuclear factor kappa-B kinase subunit epsilon (Homo sapiens, UniProt Q14164); test: IKKepsilon(IKBELGY1) Takeda global kinase panel
Chain of Inhibitor of nuclear factor kappa-B kinase subunit epsilon (Q14164 whole entry): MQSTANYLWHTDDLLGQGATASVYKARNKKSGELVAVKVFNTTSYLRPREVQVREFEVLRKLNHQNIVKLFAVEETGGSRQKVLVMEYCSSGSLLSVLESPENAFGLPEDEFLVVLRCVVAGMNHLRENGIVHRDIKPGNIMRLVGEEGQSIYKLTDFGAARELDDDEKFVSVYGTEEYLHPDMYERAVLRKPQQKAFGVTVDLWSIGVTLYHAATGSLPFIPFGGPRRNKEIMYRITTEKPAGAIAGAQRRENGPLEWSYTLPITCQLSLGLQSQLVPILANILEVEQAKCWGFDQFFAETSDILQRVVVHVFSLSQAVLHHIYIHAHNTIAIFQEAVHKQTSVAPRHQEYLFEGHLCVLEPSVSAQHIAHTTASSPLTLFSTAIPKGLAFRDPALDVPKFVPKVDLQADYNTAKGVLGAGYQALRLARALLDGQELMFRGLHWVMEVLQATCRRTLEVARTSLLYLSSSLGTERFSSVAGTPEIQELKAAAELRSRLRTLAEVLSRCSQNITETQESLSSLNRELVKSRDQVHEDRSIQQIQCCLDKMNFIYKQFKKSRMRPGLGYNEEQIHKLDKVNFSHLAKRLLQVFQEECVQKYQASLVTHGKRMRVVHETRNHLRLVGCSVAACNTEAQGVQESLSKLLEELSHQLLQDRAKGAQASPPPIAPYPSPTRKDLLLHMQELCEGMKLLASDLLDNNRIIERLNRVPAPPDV

[20] = target: Interleukin-1 receptor-associated kinase 4 (Homo sapiens, UniProt Q9NWZ3); test: IRAK4(IRK4LGF1) Takeda global kinase panel
[21] = target: Dual specificity mitogen-activated protein kinase kinase 1 (Homo sapiens, UniProt Q02750); test: MEK1 [MAP2K1(M2K1LGF1)] Takeda global kinase panel
[22] = target: Mitogen-activated protein kinase kinase kinase kinase 1 (Homo sapiens, UniProt Q92918); test: HPK1(M4K1LGY1) Takeda global kinase panel
Chain of Mitogen-activated protein kinase kinase kinase kinase 1 (Q92918 whole entry): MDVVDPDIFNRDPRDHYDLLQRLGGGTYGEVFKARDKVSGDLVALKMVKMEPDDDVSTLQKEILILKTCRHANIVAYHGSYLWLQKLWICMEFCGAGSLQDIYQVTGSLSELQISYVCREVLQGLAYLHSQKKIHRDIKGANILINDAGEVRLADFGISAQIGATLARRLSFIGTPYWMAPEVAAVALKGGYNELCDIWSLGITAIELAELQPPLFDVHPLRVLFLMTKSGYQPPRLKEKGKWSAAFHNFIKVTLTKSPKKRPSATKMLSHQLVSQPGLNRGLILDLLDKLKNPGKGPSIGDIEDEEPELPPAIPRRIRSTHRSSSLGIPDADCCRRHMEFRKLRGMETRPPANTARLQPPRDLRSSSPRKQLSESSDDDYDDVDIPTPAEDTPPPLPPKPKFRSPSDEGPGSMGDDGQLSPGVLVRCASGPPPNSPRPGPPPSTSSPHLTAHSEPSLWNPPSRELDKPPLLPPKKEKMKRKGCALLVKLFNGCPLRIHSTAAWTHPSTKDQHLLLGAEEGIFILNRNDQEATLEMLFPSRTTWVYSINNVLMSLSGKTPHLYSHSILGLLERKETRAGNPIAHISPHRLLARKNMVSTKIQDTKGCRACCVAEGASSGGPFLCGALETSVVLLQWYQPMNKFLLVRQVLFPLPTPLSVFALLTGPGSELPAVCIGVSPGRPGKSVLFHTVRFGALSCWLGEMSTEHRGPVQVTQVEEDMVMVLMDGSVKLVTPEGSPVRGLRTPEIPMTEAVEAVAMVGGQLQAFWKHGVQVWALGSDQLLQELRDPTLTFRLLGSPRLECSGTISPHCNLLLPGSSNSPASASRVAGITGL

[23] = target: Mitogen-activated protein kinase 4 (Homo sapiens, UniProt P31152); test: ERK4(MAP4LGY1) Takeda global kinase panel
Chain of Mitogen-activated protein kinase 4 (P31152 whole entry): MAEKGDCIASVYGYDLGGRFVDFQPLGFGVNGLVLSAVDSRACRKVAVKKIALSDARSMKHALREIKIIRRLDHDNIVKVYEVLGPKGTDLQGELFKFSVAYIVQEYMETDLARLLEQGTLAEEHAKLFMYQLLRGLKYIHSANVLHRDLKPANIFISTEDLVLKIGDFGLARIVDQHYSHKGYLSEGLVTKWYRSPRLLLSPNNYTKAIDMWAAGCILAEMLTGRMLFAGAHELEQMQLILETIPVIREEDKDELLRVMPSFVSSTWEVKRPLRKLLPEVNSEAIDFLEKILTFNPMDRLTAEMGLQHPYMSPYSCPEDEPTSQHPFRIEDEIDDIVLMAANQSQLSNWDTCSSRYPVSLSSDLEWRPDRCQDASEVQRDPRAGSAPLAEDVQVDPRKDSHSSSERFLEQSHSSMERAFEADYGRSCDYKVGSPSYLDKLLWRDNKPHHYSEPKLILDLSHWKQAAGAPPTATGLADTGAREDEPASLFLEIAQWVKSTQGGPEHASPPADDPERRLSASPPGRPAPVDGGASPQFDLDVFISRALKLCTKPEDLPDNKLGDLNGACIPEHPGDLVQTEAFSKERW

[24] = target: Mitogen-activated protein kinase 6 (Homo sapiens, UniProt Q16659); test: ERK3(MAP6LHY1) Takeda global kinase panel
[25] = target: Muscle, skeletal receptor tyrosine-protein kinase (Homo sapiens, UniProt O15146); test: MUSK(MUSKLGY1) Takeda global kinase panel
[26] = target: 3-phosphoinositide-dependent protein kinase 1 (Homo sapiens, UniProt O15530); test: PDK1(PDP1LGA1) Takeda global kinase panel
[27] = target: Receptor-interacting serine/threonine-protein kinase 3 (Homo sapiens, UniProt Q9Y572); test: RIPK3(RIP3IGRI) Takeda global kinase panel
SRSF protein kinase 3 = SRSF protein kinase 3 (Homo sapiens, UniProt Q9UPE1); test: MSSK1(SRP3MHRL) Takeda global kinase panel
[28] = target: Serine/threonine-protein kinase 32B (Homo sapiens, UniProt Q9NY57); test: YANK2(S32BLGY2) Takeda global kinase panel
[29] = target: Serine/threonine-protein kinase 33 (Homo sapiens, UniProt Q9BYT3); test: STK33(ST33LGF1) Takeda global kinase panel
[30] = target: Serine/threonine-protein kinase VRK1 (Homo sapiens, UniProt Q99986); test: VRK1(VRK1LGRI) Takeda global kinase panel
[31] = target: Mitogen-activated protein kinase kinase kinase 20 (Homo sapiens, UniProt Q9NYL2); test: ZAK(ZAK1LGY1) Takeda global kinase panel
[32] = target: Myosin light chain kinase family member 4 (Homo sapiens, UniProt Q86YV6); test: SgK085(SG85LGY1) Takeda global kinase panel
[33] = target: Phosphatidylinositol 4,5-bisphosphate 3-kinase catalytic subunit beta isoform (Homo sapiens, UniProt P42338); test: PIK3CB(PI3BCGRK) Takeda global kinase panel
[34] = target: Bromodomain testis-specific protein (Homo sapiens, UniProt Q58F21); test: BRDT(BRDTLGRC) Takeda global kinase panel
[35] = target: 5-hydroxytryptamine receptor 2C (Homo sapiens) (UniProt P28335); conditions: Compound concentration 10.0 uM
[36] = target: Kappa-type opioid receptor (Homo sapiens) (UniProt P41145); conditions: Compound concentration 10.0 uM
[37] = target: Beta-1 adrenergic receptor (Homo sapiens) (UniProt P08588); conditions: Compound concentration 10.0 uM
[38] = target: Muscarinic acetylcholine receptor M1 (Homo sapiens) (UniProt P11229); conditions: Compound concentration 10.0 uM
[39] = target: Mu-type opioid receptor (Homo sapiens) (UniProt P35372); conditions: Compound concentration 10.0 uM

Chain of Alpha-2B adrenergic receptor (P18089 whole entry): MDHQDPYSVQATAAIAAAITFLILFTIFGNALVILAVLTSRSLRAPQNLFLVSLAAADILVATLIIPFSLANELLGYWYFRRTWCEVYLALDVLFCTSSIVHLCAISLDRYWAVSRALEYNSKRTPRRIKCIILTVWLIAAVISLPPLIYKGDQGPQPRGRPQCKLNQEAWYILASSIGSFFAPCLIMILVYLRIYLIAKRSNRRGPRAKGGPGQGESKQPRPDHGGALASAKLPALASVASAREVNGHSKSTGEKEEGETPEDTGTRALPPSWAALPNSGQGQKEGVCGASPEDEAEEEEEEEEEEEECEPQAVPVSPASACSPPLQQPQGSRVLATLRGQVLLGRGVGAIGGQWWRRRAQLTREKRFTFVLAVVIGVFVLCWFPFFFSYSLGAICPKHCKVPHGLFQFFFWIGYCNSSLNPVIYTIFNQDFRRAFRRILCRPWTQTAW

CN1C(=O)[C@@H](N2CCc3c(nn(Cc4ccccc4)c3Br)C2=O)COc2ccccc21 [TP-030-2]
Ki ([1]; read-out: Ki): 2870 nM | Ki ([1]; read-out: pKi (converted)): 2820 nM | Ki ([2]; read-out: Ki): 2950 nM | Ki ([2]; read-out: pKi (converted)): 2820 nM | inhibition at 3 h, 10 µM [3]: 16% (not active) | inhibition [4]: -1% | inhibition [5]: -2% | IC50 (HT-29): 1.3 nM (active) | inhibition [6]: 40% | IC50 [7]: 1000 nM | IC50 [8]: 1000 nM | IC50 [9]: 1000 nM | IC50 [10]: 1000 nM | IC50 [11]: 1000 nM | IC50 [12]: 1000 nM | IC50 [13]: 1000 nM | IC50 [14]: 1000 nM | IC50 [15]: 1000 nM | IC50 (Ephrin type-A receptor 3): 1000 nM | IC50 (Ephrin type-A receptor 8): 1000 nM | IC50 [16]: 1000 nM | IC50 [17]: 1000 nM | IC50 [18]: 1000 nM | IC50 [19]: 1000 nM | IC50 [20]: 1000 nM | IC50 [21]: 1000 nM | IC50 [22]: 1000 nM | IC50 [23]: 1000 nM | IC50 [24]: 1000 nM | IC50 [25]: 1000 nM | IC50 [26]: 1000 nM | IC50 [27]: 1000 nM | IC50 (SRSF protein kinase 3): 1000 nM | IC50 [28]: 1000 nM | IC50 [29]: 1000 nM | IC50 [30]: 1000 nM | IC50 [31]: 1000 nM | IC50 [32]: 1000 nM | IC50 [33]: 1000 nM | IC50 [34]: 1000 nM | inhibition [35]: 2.4% | inhibition [36]: 16.5% | inhibition [37]: 12% | inhibition [38]: -4% | inhibition [39]: 27%
